In assay [1] the target is T1, Annexin A5-EGFP (wild-type Annexin A5 fused to EGFP) (Homo sapiens, UniProt P08758).
T1 construct: E. coli BL21(DE3), pET-28a/kanamycin vector
T1 sequence (P08758 1-320): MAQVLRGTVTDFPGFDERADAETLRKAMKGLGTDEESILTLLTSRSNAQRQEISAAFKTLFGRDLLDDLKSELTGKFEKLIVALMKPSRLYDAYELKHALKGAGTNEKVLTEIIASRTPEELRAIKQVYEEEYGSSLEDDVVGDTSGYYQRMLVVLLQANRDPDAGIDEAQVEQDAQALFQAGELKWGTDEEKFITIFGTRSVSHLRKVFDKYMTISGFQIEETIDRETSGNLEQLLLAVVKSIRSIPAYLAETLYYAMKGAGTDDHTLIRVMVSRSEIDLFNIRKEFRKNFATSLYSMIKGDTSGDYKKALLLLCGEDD
Nature of the assay: MST analysis of protein binding ability to PS (Annexin A5-EGFP). As to conditions: fitted binding curve (Fnorm), in the presence of Ca^2+, protein fixed, gradient dilution of PS, 5 min at room temperature. The procedure:
(§1) 3.2.9 MST Analysis of Protein Binding Ability to PS
(§2) MST is based on the phenomenon of thermophoresis of biomolecules in capillaries, resulting in changes in the properties of biomolecules, which are manifested in changes in the fluorescence distribution of the reaction system, and the fluorescence changes reflect the affinity of biomolecular interactions.
(§3) The MST experiment was conducted as follows.
(§4) (1) Non-fluorescent ligand preparation: 20 μL of the highest concentration unmarked PS molecules was prepared. 16 PCR tubes were labeled. 10 μL of buffer was added to each of 15 PCR tubes. 10 μL from PCR tube #1 was transferred to PCR tube #2 and mixed thoroughly. 10 μL from PCR tube #2 was transferred to PCR tube #3 and mixed thoroughly. Repeat this step in all sample tubes. Finally, 10 μL from PCR tube #16 was taken out and discard.
(§5) (2) Fluorescent ligand preparation: The fluorescent ligand was diluted to 2 times the concentration to be tested, and 10 μL was added respectively to PCR tubes 1-16 in sequence using a clean pipette tip, starting from the low concentration PCR tube to the highest concentration PCR tube.
(§6) (3) Incubation: The reaction solutions of the above tubes were mixed thoroughly and incubated for 5 min at room temperature away from light. […]

Assay [2] has as its target T2, Annexin A5m-EGFP (Annexin A5 variant Annexin A5m, R25A/K29S/R63S/D68A/E72Q/D144N/E228A/D303N, fused to EGFP) (Homo sapiens, UniProt P08758, D144N/D303N/D68A/E228A/E72Q/K29S/R25A/R63S).
T2 construct: pET-28a, E. coli BL21(DE3)
T2 sequence (P08758 1-320 R25A/K29S/R63S/D68A/E72Q/D144N/E228A/D303N): T1 sequence (P08758 1-320) with R25A, K29S, R63S, D68A, E72Q, D144N, E228A, D303N
Nature of the assay: MST analysis of protein binding ability to PS (Annexin A5m-EGFP). As to conditions: in the presence of Ca^2+, failed to be fitted into a binding curve, protein fixed, gradient dilution of PS, 5 min at room temperature. The protocol: as §1, §2, §3, §4, §5, §6

From patent US20230405084A1, “USE OF PHOSPHATIDYLSERINE IN PREPARATION OF DRUG FOR TREATING INFLAMMATORY BOWEL DISEASE” (JIANGSU TARGET BIOMEDICAL RESEARCH INSTITUTE CO., LTD., priority 2020, published 2023) come the findings set out here.

One may read the Kd as the concentration at which binding is half-saturated.

Where a chain is given by its changes, count along the chain named.

As for phosphatidylserine [PS], the Kd in assay [1] turned out to be 13.8 µM. Also, the Kd value entry in assay [2] is reported as “no Kd value”.
